Assay results taken from patent US20210299079A1, “MONOMETHYL FUMARATE-CARRIER CONJUGATES AND METHODS OF THEIR USE” (Flagship Pioneering Innovations V, Inc., priority 2018, published 2021).
Counter-ions that a name gives are not always drawn.

Key:
[1] = Stability of conjugates in Simulated Intestinal Fluid (SIF); assay type: in vitro ADME; conditions: SIF pH 6.7 with pancreatin, 37° C., 1 μM compound
Experimental: Assay 2. Stability of conjugates in Simulated Intestinal Fluid (SIF). This assay was used to assess the stability of a conjugate in a small intestine.
Phosphate buffer was prepared by dissolving 0.42 g of sodium hydroxide pellets and 3.95 g of monobasic sodium phosphate monohydrate and 6.19 g of sodium chloride in ultrapure water (MilliQ®, Millipore Sigma, Darmstadt, Germany). The pH was adjusted to 6.7 using aq. HCl and aq. NaOH, as necessary, and the solution was diluted with ultrapure water to produce 1 L of the pH 6.7 buffer.
112 mg FaSSIF powder (Biorelevant™, London, UK) was dissolved in 50 mL of the pH 6.7 buffer. 2 to 3 mL of the resulting solution were then added to 500 mg pancreatin (Millipore Sigma, Darmstadt, Germany). The resulting mixture was agitated by finger tapping the vessel containing the mixture until milky suspension formed. At this time, the remainder of the 50 mL FaSSiF/pH 6.7 buffer solution was added. The resulting suspension was flipped upside down 10 times to produce SIF, which was used fresh.
(§1) Test compounds were dissolved in DMSO stock to 1 mM. An aliquot of the DMSO stock solution was removed and diluted in the SIF media in 15 mL falcon tubes to produce a mixture with a tested compound concentration of 1 μM. A 1 mL aliquot was immediately removed and diluted once with 1 volume of acetonitrile for TO timepoint. The mixture was sealed and agitated at 37° C. in an incubator. Aliquots (1 mL) were removed at regular intervals and immediately quenched by the addition of 1 volume of acetonitrile. The resulting samples were analyzed by LC/MS to determine degradation rates

[2] = Stability of conjugates in Simulated Gastric Fluid (SGF); assay type: in vitro ADME; conditions: SGF pH 1.6 with pepsin, 37° C., 1 μM compound
Experimental: Assay 1. Stability of conjugates in Simulated Gastric Fluid (SGF). This assay was used to assess the stability of a conjugate in a stomach.
Medium was prepared by dissolving 2 g of sodium chloride in 0.6 L in ultrapure water (MilliQ®, Millipore Sigma, Darmstadt, Germany). The pH was adjusted to 1.6 with 1N hydrochloric acid, and the volume was then adjusted to 1 L with purified water.
60 mg FaSSIF powder (Biorelevant™, London, UK) were dissolved in 500 mL buffer (above). Pepsin was added (0.1 mg/mL) (Millipore Sigma, Darmstadt, Germany), and the solution was stirred. The resulting SGF media were used fresh for each experiment.
as §1, with “SGF Media” for “SIF media”, “generate” for “produce”, “total” for “mixture with a tested”, “mixed” for “agitated”, “rates in SGF.” for “rates”

naïve CD4+ T cells = assay: Human Regulatory T Cell Differentiation Assay; assay type: cell-based; conditions: 6 days; for Cell viability % DMSO: viability dye; for activity at 3000 µM: IL-2, 3 mM; for activity at 100 µM: IL-2, 100 μM
Experimental: Peripheral blood mononuclear cells (PBMCs) from whole blood donated by health volunteers were separated by Ficoll-Paque gradient centrifugation and naïve CD4^+ T cells were subsequently isolated using magnet beads (EasySep™ Human Naïve CD4^+ T Cell Isolation Kit, Cambridge, Mass.). For regulatory T cell (Treg) differentiation assay, naïve CD4^+ T cells were cultured (1-10×10^4 cells) in CTS OpTmizer medium for 6 days and stimulated with 5 ng/ml TGF-β, 100 U/ml IL-2, and ImmunoCult™ Human […] T Cell Activator; Stemcell #10990) with/without our Compounds. Cell viability was determined using a viability dye (eBioscience Fixable Viability Dye eFluor 780: ThermoFisher 65-0865-14) at 1:500 dilution. The cells were gated for Treg, defined as Live, CD11c^−, CD14^−, CD19^−, CD8^−, CD4^+, CD3^+, CD25^+, FOXP3^+. Percent (%) Tregs were calculated as percentage of CD4^+, CD25^+, FOXP3^+ cells over total CD4^+ T cells. Statistical analysis was performed with GraphPad Prism Software Using One-Way ANOVA.

[3] = Homo sapiens, 144 h, TGF-β, read-out: Treg induction % DMSO

| Structure (SMILES) | Assay 2 (SIF) (% @ Remaining 4 hours) [1] | Assay 1 (SGF) (% Remaining @ 1 hour) [2] | also measured |
| --- | --- | --- | --- |
| COC(=O)/C=C/C(=O)Oc1cc(OC(=O)/C=C/C(=O)OC)c2c(c1)O[C@H](c1ccc(OC(=O)/C=C/C(=O)OC)c(OC(=O)/C=C/C(=O)OC)c1)[C@H](OC(=O)/C=C/C(=O)OC)C2 [Compound 53, O4-[2-[(E)-4-methoxy-4-oxo-but-2-enoyl]oxy-4-[(2R,3R)-3,5,7-tris[[(E)-4-methoxy-4-oxo-but-2-enoyl]oxy]chroman-2-yl]phenyl] O1-methyl (E)-but-2-enedioate] | A (A: <25% of the tested compound remaining) | C (C: >75% of the tested compound remaining) |  |
| CCC(=O)O [propionic acid] |  |  | Cell viability % DMSO (naïve CD4+ T cells; 3 mM): = (90% > <110%: =); activity at 3000 µM (naïve CD4+ T cells; [3]): > 130% |
| COC(=O)/C=C/C(=O)Oc1ccc(-c2oc3cc(OC(=O)/C=C/C(=O)OC)cc(OC(=O)/C=C/C(=O)OC)c3c(=O)c2OC(=O)/C=C/C(=O)OC)cc1 [Compound 54, 01-methyl O4-[4-[3,5,7-tris[[(E)-4-methoxy-4-oxo-but-2-enoyl]oxy]-4-oxo-chromen-2-yl]phenyl] (E)-but-2-enedioate] | A (A: <25% of the tested compound remaining) | C (C: >75% of the tested compound remaining) |  |
| CCC(=O)O[C@H]1[C@H](OC(=O)/C=C/C(=O)OC)OC[C@@H](OC(=O)CC)[C@H]1OC(=O)CC [Compound 6, Methyl ((2S,3R,4R,5R)-3,4,5-tris(propionyloxy)tetrahydro-2H-pyran-2-yl) fumarate] | A (A: <25% of the tested compound remaining) | C (C: >75% of the tested compound remaining) |  |
| CCCC(=O)O[C@H]1[C@@H](OC(=O)CCC)[C@@H](CO)O[C@@H](OC(=O)/C=C/C(=O)OC)[C@@H]1OC(=O)CCC [Compound 44, 1-methyl (2S,3R,4S,5S,6R)-3,4,5-tris(butanoyloxy)-6-(hydroxymethyl)oxan-2-yl (2E)-but-2-enedioate] | A (A: <25% of the tested compound remaining) | C (C: >75% of the tested compound remaining) |  |
| COC(=O)/C=C/C(=O)Oc1cc(OC(=O)/C=C/C(=O)OC)c2c(=O)c(OC(=O)/C=C/C(=O)OC)c(-c3ccc(OC(=O)/C=C/C(=O)OC)c(OC(=O)/C=C/C(=O)OC)c3)oc2c1 [Compound 55, O4-[2-[(E)-4-methoxy-4-oxo-but-2-enoyl]oxy-4-[3,5,7-tris[[(E)-4-methoxy-4-oxo-but-2-enoyl]oxy]-4-oxo-chromen-2-yl]phenyl] O1-methyl (E)-but-2-enedioate] | A (A: <25% of the tested compound remaining) | C (C: >75% of the tested compound remaining) |  |
| CCC(=O)O[C@H]1[C@H](OC(=O)CC)[C@@H](OC(=O)/C=C/C(=O)OC)O[C@@H](C)[C@H]1OC(=O)CC [Compound 21, Methyl ((2R,3S,4R,5R,6S)-6-methyl-3,4,5-tris(propionyloxy)tetrahydro-2H-pyran-2-yl) fumarate] | B (B: 25-75% of the tested compound remaining) | C (C: >75% of the tested compound remaining) |  |
| CCC(=O)O[C@@H]1O[C@H](COC(=O)/C=C/C(=O)OC)[C@@H](OC(=O)CC)[C@H](OC(=O)CC)[C@H]1OC(=O)CC [Compound 22, Methyl (((2R,3R,4S,5R,6S)-3,4,5,6-tetrakis(propionyloxy)tetrahydro-2H-pyran-2-yl)methyl) fumarate] | A (A: <25% of the tested compound remaining) | C (C: >75% of the tested compound remaining) |  |
| CCC(=O)O[C@H]1O[C@H](COC(=O)/C=C/C(=O)OC)[C@@H](OC(=O)CC)[C@H](OC(=O)CC)[C@H]1OC(=O)CC [Compound 50, 1-methyl 4-[(2R,3R,4S,5R,6R)-3,4,5,6-tetrakis(propanoyloxy)oxan-2-yl]methyl (2E)-but-2-enedioate] | A (A: <25% of the tested compound remaining) | C (C: >75% of the tested compound remaining) |  |
| CCC(=O)OC[C@H]1O[C@H](OC(=O)CC)[C@H](OC(=O)CC)[C@@H](OC(=O)CC)[C@H]1OC(=O)/C=C/C(=O)OC [Compound 52, 1-methyl (2R,3S,4S,5R,6R)-4,5,6-tris(propanoyloxy)-2-[(propanoyloxy)methyl]oxan-3-yl (2E)-but-2-enedioate] | A (A: <25% of the tested compound remaining) | C (C: >75% of the tested compound remaining) |  |
| CCC(=O)O[C@@H]1[C@@H](OC(=O)CC)[C@@H](OC(=O)/C=C/C(=O)OC)O[C@H](C(=O)O)[C@H]1OC(=O)CC [Compound 26, (2S,3S,4S,5R,6R)-6-(((E)-4-methoxy-4-oxobut-2-enoyl)oxy)-3,4,5-tris(propionyloxy)tetrahydro-2H-pyran-2-carboxylic Acid] | A (A: <25% of the tested compound remaining) | C (C: >75% of the tested compound remaining) |  |
| CC(=O)O [acetic acid] |  |  | Cell viability % DMSO (naïve CD4+ T cells; 1 mM): = (90% > <110%: =); Cell viability % DMSO (naïve CD4+ T cells; 3 mM): = (90% > <110%: =); activity at 1000 µM (naïve CD4+ T cells; Homo sapiens, 144 h, TGF-β, IL-2, 1 mM, read-out: Treg induction % DMSO): 110 to 130%; activity at 3000 µM (naïve CD4+ T cells; [3]): > 130% |
| CC(O)CC(=O)[O-].[Na+] (stereo not drawn) [sodium β-hydroxybutyrate] |  |  | Cell viability % DMSO (naïve CD4+ T cells; 2 mM): = (90% > <110%: =); Cell viability % DMSO (naïve CD4+ T cells; 20 mM): − (<90%: −); activity at 2000 µM (naïve CD4+ T cells; Homo sapiens, 144 h, TGF-β, IL-2, 2 mM, read-out: Treg induction % DMSO): 110 to 130%; activity at 20000 µM (naïve CD4+ T cells; Homo sapiens, 144 h, TGF-β, IL-2, 20 mM, read-out: Treg induction % DMSO): 90 to 110% |
| CCCC(=O)O [butyric Acid] |  |  | Cell viability % DMSO (naïve CD4+ T cells; 3 mM): − (<90%: −); activity at 3000 µM (naïve CD4+ T cells; [3]): < 90% |
| CC[C@H]1[C@@H](O)[C@@H]2[C@H](CC[C@]3(C)[C@@H]([C@H](C)CCC(=O)O)CC[C@@H]23)[C@@]2(C)CC[C@@H](O)C[C@@H]12 [obeticholic acid, reference compound] |  |  | Cell viability % DMSO (naïve CD4+ T cells; 100 μM): = (90% > <110%: =); activity at 100 µM (naïve CD4+ T cells; [3]): 110 to 130% |
| CCC(=O)O[C@H]1[C@@H](OC(=O)CC)[C@@H](CO)O[C@H](OC(=O)/C=C/C(=O)OC)[C@@H]1OC(=O)CC [Compound 48, (2R,3R,4S,5S,6R)-6-(hydroxymethyl)-3,4,5-tris(propanoyloxy)oxan-2-yl 1-methyl (2E)-but-2-enedioate] | A (A: <25% of the tested compound remaining) | C (C: >75% of the tested compound remaining) |  |
| CN(CCOc1ccc(CC2SC(=O)NC2=O)cc1)c1ccccn1 (stereo not shown) [rosiglitazone, reference compound] |  |  | Cell viability % DMSO (naïve CD4+ T cells; 10 μM): = (90% > <110%: =); Cell viability % DMSO (naïve CD4+ T cells; 100 μM): − (<90%: −); activity at 10 µM (naïve CD4+ T cells; Homo sapiens, 144 h, TGF-β, IL-2, 10 μM, read-out: Treg induction % DMSO): 90 to 110%; activity at 100 µM (naïve CD4+ T cells; [3]): 90 to 110% |
